Source: PubChem BioAssay AID1963438 (Molecular Pharmacology Branch, DTP, NCI, 2024)
Blank lines part the entries; values can stand above or below the compound they belong to.

System: NCI-H510 multicellular tumor spheroid growth, % test/control
Test: Anticancer human tumor NCI-H510 cell line growth inhibition [Asc];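 also: spheroids exposed to agents for 7 days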;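 as to viability, T/C: 100% = DMSO vehicle control wells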
Conditions: for IC50: curve of first compound; for viability, T/C: stronger effect = lower value
In short: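 Concentration series start at each agent's clinical Cmax, or at 10 microM when none is established, and drop in half-log steps; agents are applied alone or together to complex spheroids built with HUVEC and hMSC.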

- IC50 (second compound 0.1 µM): 693 nM
- IC50 (second compound 0.316 µM): 905 nM
- IC50 (second compound 1 µM): 761 nM
- IC50 (second compound 3.16 µM): 961 nM
- IC50 (second compound 10 µM): 546 nM
SMILES: C=C(F)C(=O)N1CCN(c2nc(OCC3CCCN3C)nc3c2CCN(c2cccc4cccc(Cl)c24)C3)CC1CC#N (stereo not given) + Cc1c(S(C)(=O)=O)c(-c2cc(F)cc(N3CCN(c4ccc(NS(=O)(=O)c5ccc(NC(CCN6CCC(C(=O)OCCCP(=O)(O)O)CC6)CSc6ccccc6)c(S(=O)(=O)C(F)(F)F)c5)cc4)CC3)c2)c(-c2ccc(Cl)cc2)n1C(C)C
- viability, T/C (second compound 0.1 µM, first compound 0.0316 µM): 103%
- viability, T/C (second compound 0.1 µM, first compound 0.1 µM): 85.7%
- viability, T/C (second compound 0.1 µM, first compound 0.316 µM): 86%
- viability, T/C (second compound 0.1 µM, first compound 1 µM): 33.7%
- viability, T/C (second compound 0.1 µM, first compound 3.16 µM): 0.61%
- viability, T/C (second compound 0.1 µM, first compound 10 µM): 0.12%
- viability, T/C (second compound 0.316 µM, first compound 0.0316 µM): 105%
- viability, T/C (second compound 0.316 µM, first compound 0.1 µM): 95%
- viability, T/C (second compound 0.316 µM, first compound 0.316 µM): 86.2%
- viability, T/C (second compound 0.316 µM, first compound 1 µM): 48.9%
- viability, T/C (second compound 0.316 µM, first compound 3.16 µM): 0.67%
- viability, T/C (second compound 0.316 µM, first compound 10 µM): 0.11%
- viability, T/C (second compound 1 µM, first compound 0.0316 µM): 113%
- viability, T/C (second compound 1 µM, first compound 0.1 µM): 125%
- viability, T/C (second compound 1 µM, first compound 0.316 µM): 99.8%
- viability, T/C (second compound 1 µM, first compound 1 µM): 34.8%
- viability, T/C (second compound 1 µM, first compound 3.16 µM): 0.13%
- viability, T/C (second compound 1 µM, first compound 10 µM): 0.11%
- viability, T/C (second compound 3.16 µM, first compound 0.0316 µM): 118%
- viability, T/C (second compound 3.16 µM, first compound 0.1 µM): 110%
- viability, T/C (second compound 3.16 µM, first compound 0.316 µM): 94.1%
- viability, T/C (second compound 3.16 µM, first compound 1 µM): 52.2%
- viability, T/C (second compound 3.16 µM, first compound 3.16 µM): 0.11%
- viability, T/C (second compound 3.16 µM, first compound 10 µM): 0.14%
- viability, T/C (second compound 10 µM, first compound 0.0316 µM): 86.2%
- viability, T/C (second compound 10 µM, first compound 0.1 µM): 103%
- viability, T/C (second compound 10 µM, first compound 0.316 µM): 80.6%
- viability, T/C (second compound 10 µM, first compound 1 µM): 15.6%
- viability, T/C (second compound 10 µM, first compound 3.16 µM): 0.8%
- viability, T/C (second compound 10 µM, first compound 10 µM): 0.19%

- IC50 (second compound 0.03 µM): > 100 nM
- IC50 (second compound 0.0949 µM): > 100 nM
- IC50 (second compound 0.3 µM): > 100 nM
- IC50 (second compound 0.949 µM): > 100 nM
- IC50 (second compound 3 µM): 84.8 nM
SMILES: NC1CCC(NC2CC2c2ccccc2)CC1 (stereo not given) + CCN1C(C(=O)NC23CCC(C(=O)O)(CC2)CC3)C(c2cccc(Cl)c2F)C2(C(=O)Nc3cc(Cl)ccc32)C12CCCCC2
- viability, T/C (second compound 0.03 µM, first compound 0.000316 µM): 85.9%
- viability, T/C (second compound 0.03 µM, first compound 0.001 µM): 84.4%
- viability, T/C (second compound 0.03 µM, first compound 0.00316 µM): 82.5%
- viability, T/C (second compound 0.03 µM, first compound 0.01 µM): 81.9%
- viability, T/C (second compound 0.03 µM, first compound 0.0316 µM): 92.4%
- viability, T/C (second compound 0.03 µM, first compound 0.1 µM): 91.9%
- viability, T/C (second compound 0.0949 µM, first compound 0.000316 µM): 101%
- viability, T/C (second compound 0.0949 µM, first compound 0.001 µM): 71.6%
- viability, T/C (second compound 0.0949 µM, first compound 0.00316 µM): 77.5%
- viability, T/C (second compound 0.0949 µM, first compound 0.01 µM): 78.7%
- viability, T/C (second compound 0.0949 µM, first compound 0.0316 µM): 60.6%
- viability, T/C (second compound 0.0949 µM, first compound 0.1 µM): 71.3%
- viability, T/C (second compound 0.3 µM, first compound 0.000316 µM): 92.4%
- viability, T/C (second compound 0.3 µM, first compound 0.001 µM): 85.8%
- viability, T/C (second compound 0.3 µM, first compound 0.00316 µM): 98.3%
- viability, T/C (second compound 0.3 µM, first compound 0.01 µM): 95.8%
- viability, T/C (second compound 0.3 µM, first compound 0.0316 µM): 73.3%
- viability, T/C (second compound 0.3 µM, first compound 0.1 µM): 55.8%
- viability, T/C (second compound 0.949 µM, first compound 0.000316 µM): 83.8%
- viability, T/C (second compound 0.949 µM, first compound 0.001 µM): 92.9%
- viability, T/C (second compound 0.949 µM, first compound 0.00316 µM): 90.6%
- viability, T/C (second compound 0.949 µM, first compound 0.01 µM): 80.8%
- viability, T/C (second compound 0.949 µM, first compound 0.0316 µM): 72.3%
- viability, T/C (second compound 0.949 µM, first compound 0.1 µM): 60.5%
- viability, T/C (second compound 3 µM, first compound 0.000316 µM): 106%
- viability, T/C (second compound 3 µM, first compound 0.001 µM): 82.3%
- viability, T/C (second compound 3 µM, first compound 0.00316 µM): 79.8%
- viability, T/C (second compound 3 µM, first compound 0.01 µM): 75.2%
- viability, T/C (second compound 3 µM, first compound 0.0316 µM): 60%
- viability, T/C (second compound 3 µM, first compound 0.1 µM): 46.6%

- IC50 (second compound 0.01 µM): > 300 nM
- IC50 (second compound 0.0316 µM): > 300 nM
- IC50 (second compound 0.1 µM): > 300 nM
- IC50 (second compound 0.316 µM): > 300 nM
- IC50 (second compound 1 µM): > 300 nM
SMILES: NC(=O)C(=Cn1cnc(-c2cc(C(F)(F)F)cc(C(F)(F)F)c2)n1)c1cncnc1 + CNC(C)C(=O)NC1CN(S(=O)(=O)c2cccc(S(=O)(=O)N3CCC4CCC(C(=O)NC(c5ccccc5)c5ccccc5)N4C(=O)C(NC(=O)C(C)NC)C3)c2)CCC2CCC(C(=O)NC(c3ccccc3)c3ccccc3)N2C1=O
- viability, T/C (second compound 0.01 µM, first compound 0.000949 µM): 104%
- viability, T/C (second compound 0.01 µM, first compound 0.003 µM): 112%
- viability, T/C (second compound 0.01 µM, first compound 0.00949 µM): 104%
- viability, T/C (second compound 0.01 µM, first compound 0.03 µM): 92.3%
- viability, T/C (second compound 0.01 µM, first compound 0.0949 µM): 110%
- viability, T/C (second compound 0.01 µM, first compound 0.3 µM): 101%
- viability, T/C (second compound 0.0316 µM, first compound 0.000949 µM): 92.3%
- viability, T/C (second compound 0.0316 µM, first compound 0.003 µM): 101%
- viability, T/C (second compound 0.0316 µM, first compound 0.00949 µM): 102%
- viability, T/C (second compound 0.0316 µM, first compound 0.03 µM): 108%
- viability, T/C (second compound 0.0316 µM, first compound 0.0949 µM): 112%
- viability, T/C (second compound 0.0316 µM, first compound 0.3 µM): 108%
- viability, T/C (second compound 0.1 µM, first compound 0.000949 µM): 110%
- viability, T/C (second compound 0.1 µM, first compound 0.003 µM): 94.5%
- viability, T/C (second compound 0.1 µM, first compound 0.00949 µM): 107%
- viability, T/C (second compound 0.1 µM, first compound 0.03 µM): 110%
- viability, T/C (second compound 0.1 µM, first compound 0.0949 µM): 112%
- viability, T/C (second compound 0.1 µM, first compound 0.3 µM): 96.8%
- viability, T/C (second compound 0.316 µM, first compound 0.000949 µM): 115%
- viability, T/C (second compound 0.316 µM, first compound 0.003 µM): 116%
- viability, T/C (second compound 0.316 µM, first compound 0.00949 µM): 109%
- viability, T/C (second compound 0.316 µM, first compound 0.03 µM): 87.3%
- viability, T/C (second compound 0.316 µM, first compound 0.0949 µM): 109%
- viability, T/C (second compound 0.316 µM, first compound 0.3 µM): 95.9%
- viability, T/C (second compound 1 µM, first compound 0.000949 µM): 93.7%
- viability, T/C (second compound 1 µM, first compound 0.003 µM): 107%
- viability, T/C (second compound 1 µM, first compound 0.00949 µM): 93.6%
- viability, T/C (second compound 1 µM, first compound 0.03 µM): 104%
- viability, T/C (second compound 1 µM, first compound 0.0949 µM): 105%
- viability, T/C (second compound 1 µM, first compound 0.3 µM): 92.9%
